Measured values taken from ChEMBL document CHEMBL4699427, “A3- and A2B-fluorocorroles: synthesis, X-ray characterization and antiviral activity evaluation against human cytomegalovirus infection” (RSC Med Chem, 2020).
pIC50: −log10 of the molar value. Blank lines part the entries; values can stand above or below the compound they belong to. The source made the active and inactive calls. The calls are words filed in the database; no cut-off is given here.

Key:
[1] = Cytotoxicity against human MRC5 cells assessed as reduction in cell viability incubated for 6 days by Hoechst 33342 staining based microscopic analysis; details: time 6 day
Human betaherpesvirus 5 [2] = assay: Antiviral activity against Human Cytomegalovirus infected in human MRC5 cells assessed as reduction in infection rate incubated for 6 days by Hoechst 33342 staining based microscopic analysis; assay type: functional, cell-based; details: Human betaherpesvirus 5, MRC5, 144 h; read-out: IC50
Human betaherpesvirus 5 [3] = assay: Antiviral activity against human Cytomegalovirus infected in human ARPE-19 cells assessed as reduction in infection rate incubated for 10 days by Hoechst 33342 staining based microscopic analysis; assay type: functional, cell-based; details: Human betaherpesvirus 5, ARPE-19, 240 h; read-out: IC50
[4] = Drug metabolism in human ARPE-19 cell culture at 10 uM incubated for 10 days; assay type: ADME; details: arpe-19, 240 h, time 10 day
[5] = Drug uptake in rabbit RK13 cells incubated for 24 hrs by Hoechst staining based microscopic analysis; assay type: ADME, cell-based, Oryctolagus cuniculus; details: rk13, 24 h
Human betaherpesvirus 5 [6] = assay: Antiviral activity against letermovir resistant Cytomegalovirus UL56 R369G infected in human MRC5 cells assessed as reduction in infection rate at 600 nM incubated for 6 days by Hoechst 33342 staining based microscopic analysis; assay type: functional, cell-based; details: time 6.0 day
Human betaherpesvirus 5 [7] = assay: Antiviral activity against ganciclovir resistant Cytomegalovirus UL54 D301N infected in human MRC5 cells assessed as reduction in infection rate incubated for 6 days by Hoechst 33342 staining based microscopic analysis; assay type: functional, cell-based; details: time 6.0 day
Human betaherpesvirus 5 [8] = assay: Antiviral activity against ganciclovir resistant Cytomegalovirus UL54 D301N infected in human MRC5 cells assessed as reduction in viral DNA replication incubated for 6 days by Hoechst 33342 staining based microscopic analysis; assay type: functional, cell-based; details: time 6.0 day
[9] = Selectivity index, ratio of CC50 for human MRC5 cells to IC50 for human Cytomegalovirus infected in human MRC5 cells incubated for 6 days; assay type: toxicity, cell-based; details: time 6 day, read-out: Ratio CC50/IC50
[10] = Selectivity index, ratio of CC50 for human MRC5 cells to IC50 for human Cytomegalovirus infected in human ARPE-19 cells incubated for 10 days; assay type: toxicity, cell-based; details: time 6 day, read-out: Ratio CC50/IC50
Human betaherpesvirus 5 [11] = assay: Antiviral activity against human Cytomegalovirus infected in human ARPE-19 cells assessed as reduction in infection rate incubated for 12 days by Hoechst 33342 staining based microscopic analysis; assay type: functional, cell-based; details: Human betaherpesvirus 5, ARPE-19, 288 h
[12] = Selectivity index, ratio of CC50 for human MRC5 cells to IC50 for human Cytomegalovirus infected in human ARPE-19 cells incubated for 12 days; assay type: toxicity, cell-based; details: time 6 day, read-out: Ratio CC50/IC50
[13] = Cytotoxicity against human MRC5 cells assessed as assessed as number of fluorescent nuclei incubated for 6 days by Hoechst 33342 staining based microscopic analysis; assay type: cell-based; details: time 6 day
[14] = Cytotoxicity against human ARPE-19 cells assessed as assessed as number of fluorescent nuclei incubated for 6 days by Hoechst 33342 staining based microscopic analysis; assay type: cell-based; details: time 6 day
Human betaherpesvirus 5 [15] = assay: Antiviral activity against human Cytomegalovirus infected in human ARPE-19 cells assessed as reduction in viral replication incubated for 12 days by Hoechst 33342 staining based microscopic analysis; assay type: functional, cell-based; details: Human betaherpesvirus 5, ARPE-19, 288 h
Human betaherpesvirus 5 [16] = assay: Antiviral activity against human Cytomegalovirus infected in human MRC5 cells assessed as reduction in viral replication incubated for 6 days by Hoechst 33342 staining based microscopic analysis; assay type: functional, cell-based; details: Human betaherpesvirus 5, MRC5, 144 h
Human betaherpesvirus 5 [17] = assay: Antiviral activity against human Cytomegalovirus infected in human ARPE-19 cells assessed as reduction in viral replication incubated for 13 days by Hoechst 33342 staining based microscopic analysis; assay type: functional, cell-based; details: Human betaherpesvirus 5, ARPE-19, 312 h
[18] = Selectivity index, ratio of CC50 for human MRC5 cells to IC50 for human Cytomegalovirus infected in human ARPE-19 cells incubated for 13 days; assay type: toxicity, cell-based; details: time 6 day, read-out: Ratio CC50/IC50
Human betaherpesvirus 5 [19] = assay: Antiviral activity against human Cytomegalovirus infected in human ARPE-19 cells assessed as reduction in virus-induced cytopathic effect at 0.75 uM incubated for 10 days by Hoechst 33342 staining based microscopic analysis; assay type: functional, cell-based; details: time 10.0 day
Human betaherpesvirus 5 [20] = assay: Antiviral activity against human Cytomegalovirus harboring ANCHOR assessed as reduction in infection rate incubated for 1 hr followed by cell line addition and measured after 24 hrs by Hoechst 33342 staining based microscopic analysis; assay type: functional; details: ARPE-19, dose microM 0.187-3, time 25.0 hrs
Human betaherpesvirus 5 [21] = assay: Antiviral activity against human Cytomegalovirus harboring ANCHOR assessed as reduction in viral DNA replication incubated for 1 hr followed by cell line addition and measured after 24 hrs by Hoechst 33342 staining based microscopic analysis; assay type: functional; details: ARPE-19, dose microM 0.187-3, time 25.0 hrs
Human betaherpesvirus 5 [22] = assay: Virucidal activity against human Cytomegalovirus infected in APRE-19 cells at 0.187 to 3 uM preincubated for 1 hr with virus followed by cell line addition and measured after 24 hrs by Hoechst 33342 staining based microscopic analysis; assay type: functional; details: ARPE-19, dose microM 0.187-3, time 25.0 hrs
Human betaherpesvirus 5 [23] = assay: Antiviral activity against human Cytomegalovirus infected in human ARPE-19 cells assessed as reduction in viral DNA replication at 0.187-3 uM incubated for 18 hrs by Hoechst 33342 staining based microscopic analysis; assay type: functional, cell-based; details: dose microM 0.187-3, time 18.0 hrs
Human betaherpesvirus 5 [24] = assay: Antiviral activity against human Cytomegalovirus harboring ANCHOR infected in human ARPE-19 cells assessed as reduction in viral infection rate at 0.187 to 3 uM incubated for 18 hrs post infection by Hoechst 33342 staining based microscopic analysis; assay type: functional, cell-based; details: dose microM 0.187-3, time 18.0 hrs
Human betaherpesvirus 5 [25] = assay: Induction of viral absorption in human Cytomegalovirus harboring ANCHOR infected in human ARPE-19 cells at 0.187 to 3 uM incubated for 18 hrs post infection by Hoechst 33342 staining based microscopic analysis; assay type: functional, organism-based; details: dose microM 0.187-3, time 18.0 hrs
Human betaherpesvirus 5 [26] = assay: Induction of viral entry in human Cytomegalovirus harboring ANCHOR infected in human ARPE-19 cells at 0.187 to 3 uM incubated for 18 hrs by Hoechst 33342 staining based microscopic analysis; assay type: functional, organism-based; details: dose microM 0.187-3, time 18.0 hrs
Human betaherpesvirus 5 [27] = assay: Antiviral activity against human Cytomegalovirus infected in human MRC5 cells assessed as reduction in viral infection rate at 0.75 uM incubated for 6 days by Hoechst 33342 staining based microscopic analysis; assay type: functional, cell-based; details: time 6.0 day
Human betaherpesvirus 5 [28] = assay: Antiviral activity against human Cytomegalovirus infected in human MRC5 cells assessed as reduction in viral replication at 0.75 uM incubated for 6 days by Hoechst 33342 staining based microscopic analysis; assay type: functional, cell-based; details: time 6.0 day
Human betaherpesvirus 5 [29] = assay: Antiviral activity against human Cytomegalovirus infected in human MRC5 cells assessed as reduction in infection rate at 0.187 to 3 uM treated 24 hrs after infection measured after 6 days by Hoechst 33342 staining based microscopic analysis; assay type: functional, cell-based; details: dose microM 0.187-3, time 6.0 day
Human betaherpesvirus 5 [30] = assay: Antiviral activity against human Cytomegalovirus infected in human MRC5 cells assessed as reduction in infection rate at 0.187 to 3 uM preincubated for 1 hr with cells by Hoechst 33342 staining based microscopic analysis; assay type: functional, cell-based; details: dose microM 0.187-3, time 1.0 hrs
RK13 = assay: Effect on gB expression in human Cytomegalovirus harboring ANCHOR infected in rabbit RK13 cells assessed as reduction in replication at late phase by at 5 uM by immunofluorescence assay; assay type: functional, cell-based; details: Human betaherpesvirus 5
Human betaherpesvirus 5 [31] = assay: Antiviral activity against Human cytomegalovirus harboring ANCHOR infected in ARPE-19 cells assessed as reduction in viral infection at 0.75 uM measured after 6 days by microscopic analysis relative to control; assay type: functional, cell-based; details: time 6.0 day
Human betaherpesvirus 5 [32] = assay: Antiviral activity against human Cytomegalovirus harboring ANCHOR infected in ARPE-19 cells assessed as reduction in infection rate preincubated for 2 hrs with cells followed by infected with virus and measured after 24 hrs by Hoechst 33342 staining based microscopic analysis; assay type: functional, cell-based; details: dose microM 0.187-3, time 26.0 hrs
Human betaherpesvirus 5 [33] = assay: Antiviral activity against human Cytomegalovirus harboring ANCHOR infected in ARPE-19 cells assessed as reduction in viral DNA replication preincubated for 2 hrs with cells followed by infected with virus and measured after 24 hrs by Hoechst 33342 staining based microscopic analysis; assay type: functional, cell-based; details: dose microM 0.187-3, time 26.0 hrs
Human betaherpesvirus 5 [34] = assay: Virucidal activity against human Cytomegalovirus infected in MRC-5 cells at 0.187 to 3 uM preincubated for 1 hr with virus followed by cell line addition and measured after 24 hrs by Hoechst 33342 staining based microscopic analysis; assay type: functional; details: MRC5, dose microM 0.187-3, time 25.0 hrs
Human betaherpesvirus 5 [35] = assay: Induction of viral absorption in human Cytomegalovirus harboring ANCHOR infected in human MRC-5 cells at 0.187 to 3 uM incubated for 18 hrs post infection by Hoechst 33342 staining based microscopic analysis; assay type: functional, organism-based; details: MRC5, dose microM 0.187-3, time 18.0 hrs
Human betaherpesvirus 5 [36] = assay: Induction of viral entry in human Cytomegalovirus harboring ANCHOR infected in human MRC-5 cells at 0.187 to 3 uM incubated for 18 hrs by Hoechst 33342 staining based microscopic analysis; assay type: functional, organism-based; details: MRC5, dose microM 0.187-3, time 18.0 hrs
Human betaherpesvirus 5 [37] = assay: Antiviral activity against human Cytomegalovirus UL56 infected in human MRC5 cells assessed as reduction in infection rate incubated for 6 days by Hoechst 33342 staining based microscopic analysis; assay type: functional, cell-based; details: Human betaherpesvirus 5, UL56, MRC5, 144 h

SMILES: Fc1cc(F)c(F)c(-c2c3nc(c4ccc([nH]4)c(-c4c(F)c(F)cc(F)c4F)c4ccc([nH]4)c(-c4c(F)c(F)c(F)c(F)c4F)c4ccc2[nH]4)C=C3)c1F
- CC50 at 144 h [1]: 16200 nM
- pIC50 (Human betaherpesvirus 5 [2]): 6.19
- pIC50 (Human betaherpesvirus 5 [3]): 7.70
- Drug metabolism [4]: Metabolite_Notdetected
- Drug uptake [5]: Active
- Activity (Human betaherpesvirus 5 [6]): Active
- Activity (Human betaherpesvirus 5 [7]): Active
- Activity (Human betaherpesvirus 5 [8]): Active
- selectivity ratio at 144 h [9]: 24.9
- selectivity ratio at 144 h [10]: 416

- pIC50 (Human betaherpesvirus 5 [11]): 6.80
SMILES: Fc1cc(F)c(F)c(-c2c3nc(c4ccc([nH]4)c(-c4c(F)c(F)cc(F)c4F)c4ccc([nH]4)c(-c4c(F)c(F)cc(F)c4F)c4ccc2[nH]4)C=C3)c1F
- CC50 at 144 h [1]: 25300 nM
- pIC50 (Human betaherpesvirus 5 [2]): 5.98
- selectivity ratio at 144 h [9]: > 24
- selectivity ratio at 144 h [12]: > 312
- CC50 at 144 h [13]: 3400 nM
- CC50 at 144 h [14]: 22500 nM

- pIC50 (Human betaherpesvirus 5 [15]): 5.64
- pIC50 (Human betaherpesvirus 5 [17]): 5.64
SMILES: Fc1ccc(F)c(-c2c3nc(c4ccc([nH]4)c(-c4c(F)ccc(F)c4F)c4ccc([nH]4)c(-c4c(F)ccc(F)c4F)c4ccc2[nH]4)C=C3)c1F
- CC50 at 144 h [1]: > 50000 nM
- pIC50 (Human betaherpesvirus 5 [16]): 5.74
- selectivity ratio at 144 h [9]: > 28
- selectivity ratio at 144 h [18]: > 21

SMILES: Fc1c(F)c(F)c(-c2c3nc(c4ccc([nH]4)c(-c4c(F)c(F)c(F)c(F)c4F)c4ccc([nH]4)c(-c4c(F)c(F)c(F)c(F)c4F)c4ccc2[nH]4)C=C3)c(F)c1F
- CC50 at 144 h [1]: 3270 nM
- pIC50 (Human betaherpesvirus 5 [2]): 5.92
- pIC50 (Human betaherpesvirus 5 [11]): 6.02
- Activity (Human betaherpesvirus 5 [19]): Active
- Activity (Human betaherpesvirus 5 [20]): Dose-dependent effect
- Activity (Human betaherpesvirus 5 [21]): Dose-dependent effect
- Activity (Human betaherpesvirus 5 [22]): inactive
- Activity (Human betaherpesvirus 5 [23]): Active
- Activity (Human betaherpesvirus 5 [24]): inactive
- Activity (Human betaherpesvirus 5 [25]): Active
- Activity (Human betaherpesvirus 5 [26]): Active
- Activity (Human betaherpesvirus 5 [27]): Active
- Activity (Human betaherpesvirus 5 [28]): Active
- Activity (Human betaherpesvirus 5 [29]): Active
- Activity (Human betaherpesvirus 5 [30]): inactive
- Activity (RK13): Active
- selectivity ratio at 144 h [9]: 2.75
- selectivity ratio at 144 h [12]: 27
- Activity (Human betaherpesvirus 5 [31]): Active
- Activity (Human betaherpesvirus 5 [32]): inactive
- Activity (Human betaherpesvirus 5 [33]): inactive
- Activity (Human betaherpesvirus 5 [34]): inactive
- Activity (Human betaherpesvirus 5 [35]): Dose-dependent effect
- Activity (Human betaherpesvirus 5 [36]): Dose-dependent effect

SMILES: COc1cccc(N2CCN(C3=Nc4c(F)cccc4[C@H](CC(=O)O)N3c3cc(C(F)(F)F)ccc3OC)CC2)c1 [LETERMOVIR]
- pIC50 (Human betaherpesvirus 5 [37]): 8.40
